Columns and labels:
red blood cells (RBCs) = assay: Hemolysis assay with synthetic peptides on purified RBCs; assay type: cell-based, human; settings: 37 °C; for hemolysis by the P7 derivative alone: 2 µM
Protocol: RBCs were purified from whole blood of healthy volunteers. Blood was collected in tubes containing EDTA-K3 as an anticoagulant (approximately 9 mL/tube). To separate RBCs from white blood cells (WBCs) and plasma, three washes were performed by centrifugation (2000× g for 10 min) and subsequent re-suspension to reach 9 mL. First, the RBCs were resuspended in Dulbecco′s Phosphate Buffered Saline (DPBS) + 2% heat inactivated fetal bovine serum, then in pure DPBS, and eventually in RPMI (for assays with live candida) or again DPBS (for assays with peptides). After each centrifugation step, care was taken to remove as many WBCs as possible from the central buffy layer. A hemocytometer (Auto Hematology Analyzer BC-5300 Vet (Mindray, Shenzhen, China)) was used to verify that the WBC count was negligible ([…]) and to determine the RBC concentration. This was then adjusted to 5 × 10^8 cells/mL, in the respective media or buffer.
Peptides were purchased from two different suppliers, namely Proteogenix (Strasbourg, France) and Peptide Protein Research Ltd. (Southampton, UK). Stock solutions were prepared in pure water at a concentration of 1.4 mM, then aliquoted and stored at −20 °C. […] Working solutions were then prepared in the relative buffer at the final concentration indicated for each assay.
To assess the hemolytic potential of C. albicans strains, RBCs and fungal cells were mixed in a 1:1 ratio (5 × 10^7 each, in a final volume of 600 µL) in a 2 mL plastic test tube (screw cap). Every condition was performed in duplicates (technical replicates) and with at least three different donors (biological replicates). Test tubes were then incubated horizontally at 50 rpms, 37 °C, for 24 h. To assess the hemolytic potential of peptides, 10^7 RBCs were incubated with the relevant peptide at the indicated final concentration in a total volume of 150 µL, for 1 h at 37 °C, in a 96-well PCR plate. After incubation, samples were centrifuged (2000× g for 3 min) and 100 µL of supernatant was transferred to a fresh 96-well plate to measure hemoglobin absorbance at 414 nm. Hemolysis was defined as the absorbance of the sample relative to the absorbance of the full lysis control sample (RBCs incubated with pure water), following subtraction of the absorbance of the vehicle control (RBCs incubated with media or buffer only).

[1] = test system: candidalysin-induced hemolysis of RBCs; assay: Protection of RBCs from candidalysin-induced lysis by purinergic receptor antagonist; assay type: cell-based, human; settings: candidalysin 16 µM, increasing concentrations of PPADS, 1 h, 37 °C
Protocol: Figure 5 The purinergic receptor antagonist pyridoxal-phosphate-6-azophenyl-2′,4′-disulfonic acid (PPADS) protects from candidalysin-induced hemolysis via a purinergic receptor-independent mechanism. (a) Purified RBCs were incubated with candidalysin (16 µM) and increasing concentrations of PPADS, for 1 h at 37 °C. Hemolysis was quantified by measuring the absorbance of sample’s supernatant at 414 nm, and plotted relative to the full lysis control sample (RBCs incubated with pure water and the same amount of PPADS), following subtraction of the relative vehicle control (containing the same amount of PPADS). […] Permeabilization was measured as kinetic changes in conductance of tethered lipid membranes. […]
To assess the hemolytic potential of C. albicans strains, RBCs and fungal cells were mixed in a 1:1 ratio (5 × 10^7 each, in a final volume of 600 µL) in a 2 mL plastic test tube (screw cap). […] After incubation, samples were centrifuged (2000× g for 3 min) and 100 µL of supernatant was transferred to a fresh 96-well plate to measure hemoglobin absorbance at 414 nm. Hemolysis was defined as the absorbance of the sample relative to the absorbance of the full lysis control sample (RBCs incubated with pure water), following subtraction of the absorbance of the vehicle control (RBCs incubated with media or buffer only).

[2] = Membrane permeabilization by candidalysin, tethered bilayer lipid membranes (conductance); settings: membranes without receptors, candidalysin 5, 10, 20 µM, 37 °C
Protocol: Figure 5 The purinergic receptor antagonist pyridoxal-phosphate-6-azophenyl-2′,4′-disulfonic acid (PPADS) protects from candidalysin-induced hemolysis via a purinergic receptor-independent mechanism. (a) Purified RBCs were incubated with candidalysin (16 µM) and increasing concentrations of PPADS, for 1 h at 37 °C. Hemolysis was quantified by measuring the absorbance of sample’s supernatant at 414 nm, and plotted relative to the full lysis control sample (RBCs incubated with pure water and the same amount of PPADS), following subtraction of the relative vehicle control (containing the same amount of PPADS). Each data point on the graph represents a different donor (average of 2 technical replicates). […] Permeabilization was measured as kinetic changes in conductance of tethered lipid membranes.
Tethered bilayer lipid membranes with 10% tethering lipids and 90% spacer lipids (T10 slides) were formed using the solvent exchange technique according to the manufacturer’s instructions (SDx Tethered Membranes Pty Ltd., Sydney, Australia). […] After rinsing 3× with 100 µL buffer, the conductance and capacitance of the membranes were measured for 20 min before injection of different concentrations of PPADS to the final concentrations in the individual channels as shown. […] Signals were measured using the tethaPod (SDx Tethered Membranes Pty Ltd., Sydney, Australia).

epithelial cells = settings: cited from earlier work
Text: Candidalysin is generated from the longer polyprotein Ece1, which is processed by the Golgi-located Kex2 protease into eight peptides with C-terminal lysine–arginine (KR) residues. It was subsequently shown that a second processing event occurs by another Golgi-located protease, Kex1 [5, 11] which produces mature candidalysin by removing the C-terminal arginine from P3 [5, 11]. Peptides deriving from a Kex2-only processing are secreted, albeit at lower levels than mature candidalysin [5, 11].

In the case of `CC[C@H](C)[C@H](NC(=O)[C@H](CC(C)C)NC(=O)[C@H](CCC(N)=O)NC(=O)[C@@H]1CCCN1C(=O)[C@H](CC(C)C)NC(=O)[C@H](CCCNC(=N)N)NC(=O)[C@H](CCC(N)=O)NC(=O)[C@H](CC(C)C)NC(=O)[C@H](CC(C)C)NC(=O)[C@H](CCC(=O)O)NC(=O)[C@H](CC(=O)O)NC(=O)[C@H](CC(C)C)NC(=O)[C@H](Cc1ccccc1)NC(=O)[C@H](CC(=O)O)NC(=O)[C@H](CCC(=O)O)NC(=O)[C@H](CC(C)C)NC(=O)CNC(=O)[C@@H](N)CC(=O)O)C(=O)N[C@H](C(=O)N[C@@H](CCCNC(=N)N)C(=O)N[C@@H](CO)C(=O)N[C@@H](C)C(=O)N[C@@H](CCC(=O)O)C(=O)N[C@@H](CO)C(=O)N[C@@H](C)C(=O)N[C@@H](CC(C)C)C(=O)N[C@@H](CCCCN)C(=O)N[C@@H](CC(=O)O)C(=O)N[C@@H](CO)C(=O)N[C@@H](CCC(N)=O)C(=O)N1CCC[C@H]1C(=O)N[C@H](C(=O)N[C@@H](CCCCN)C(=O)O)C(C)C)[C@@H](C)O` [P7K], the “hemolysis by the P7 derivative alone” value (red blood cells (RBCs); 1 h) is reported as “no effect”.
For `CC[C@H](C)[C@H](NC(=O)[C@H](CC(C)C)NC(=O)[C@H](CCC(N)=O)NC(=O)[C@@H]1CCCN1C(=O)[C@H](CC(C)C)NC(=O)[C@H](CCCNC(=N)N)NC(=O)[C@H](CCC(N)=O)NC(=O)[C@H](CC(C)C)NC(=O)[C@H](CC(C)C)NC(=O)[C@H](CCC(=O)O)NC(=O)[C@H](CC(=O)O)NC(=O)[C@H](CC(C)C)NC(=O)[C@H](Cc1ccccc1)NC(=O)[C@H](CC(=O)O)NC(=O)[C@H](CCC(=O)O)NC(=O)[C@H](CC(C)C)NC(=O)CNC(=O)[C@@H](N)CC(=O)O)C(=O)N[C@H](C(=O)O)[C@@H](C)O` [P7a], the “hemolysis by the P7 derivative alone” value (red blood cells (RBCs); 1 h) was “low-level cytolytic activity”.
With `Cc1nc(N=Nc2ccc(S(=O)(=O)O)cc2S(=O)(=O)O)c(COP(=O)(O)O)c(C=O)c1O` [PPADS, pyridoxal-phosphate-6-azophenyl-2′,4′-disulfonic acid] the “effect on candidalysin-induced hemolysis” value [1] was “reduced” and the “effect on permeabilization of artificial membranes by candidalysin” value [2] was “able to inhibit permeabilization”.
For candidalysin, the “reduction of hemolytic potential in the presence of EDTA” value (red blood cells (RBCs); 100 mM EDTA, peptide 9 µM (Proteogenix), 1 h) was 4.2 fold, the “hemolytic activity compared with P3” value (red blood cells (RBCs); all tested concentrations (1–8 µM), time course) was “clearly less hemolytic than P3” and the “effect of pH on lysis efficiency” value (red blood cells (RBCs); pH 5 to 8, buffered HBSS, peptide 9 µM, 1 h) was “Only a minimal difference”. For the same compound, the “effect of adding excess Mg2+ ions (MgCl2) to cells pre-treated with EDTA on cytotoxicity” value (red blood cells (RBCs); peptide 9 µM, EDTA then MgCl2 up to 100 mM, 1 h) was “restored the cytotoxicity”, the “peptide concentration at and above which almost full RBC lysis was observed at the earliest time point” value (red blood cells (RBCs); time course, 5 min incubation, range 1–8 µM, mean of 4 donors) was no less than 4 µM and the “cytolytic activity against epithelial cells” value (epithelial cells) was “have cytolytic activity”.
